Counter-ions that a name gives are not always drawn.
How the values were obtained:
[1] = target: purified human Factor XIa (Homo sapiens (Human), UniProt P03951); experiment: biochemical; format: biochemical; details: read-out: Factor XIa Ki
[2] = target: purified human plasma kallikrein (Homo sapiens (Human), UniProt P03952); experiment: biochemical; format: biochemical; details: read-out: Plasma Kallikrein Ki
Chain of purified human plasma kallikrein (P03952 whole entry, looked up): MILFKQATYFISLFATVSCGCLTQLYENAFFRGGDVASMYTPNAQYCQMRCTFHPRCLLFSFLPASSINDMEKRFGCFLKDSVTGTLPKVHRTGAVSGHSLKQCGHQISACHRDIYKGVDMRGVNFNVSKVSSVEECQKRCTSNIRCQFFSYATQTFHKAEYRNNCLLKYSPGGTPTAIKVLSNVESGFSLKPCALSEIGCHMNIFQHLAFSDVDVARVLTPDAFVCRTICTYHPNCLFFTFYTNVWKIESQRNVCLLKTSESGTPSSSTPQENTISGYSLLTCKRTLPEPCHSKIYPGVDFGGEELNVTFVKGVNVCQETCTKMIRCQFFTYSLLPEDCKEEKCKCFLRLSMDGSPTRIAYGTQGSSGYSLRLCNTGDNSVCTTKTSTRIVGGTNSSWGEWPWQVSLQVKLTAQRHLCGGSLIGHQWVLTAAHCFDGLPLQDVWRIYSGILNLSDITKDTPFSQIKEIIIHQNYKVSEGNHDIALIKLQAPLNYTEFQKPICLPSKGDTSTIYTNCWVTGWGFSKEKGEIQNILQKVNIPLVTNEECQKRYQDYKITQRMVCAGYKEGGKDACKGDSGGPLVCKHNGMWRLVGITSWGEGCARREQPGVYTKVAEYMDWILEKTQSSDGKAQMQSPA
Chain of purified human plasma kallikrein (P03952 whole entry partner, looked up): as the sequence (P03952 whole entry, looked up) above

Chain of purified human Factor XIa (P03951 whole entry, looked up): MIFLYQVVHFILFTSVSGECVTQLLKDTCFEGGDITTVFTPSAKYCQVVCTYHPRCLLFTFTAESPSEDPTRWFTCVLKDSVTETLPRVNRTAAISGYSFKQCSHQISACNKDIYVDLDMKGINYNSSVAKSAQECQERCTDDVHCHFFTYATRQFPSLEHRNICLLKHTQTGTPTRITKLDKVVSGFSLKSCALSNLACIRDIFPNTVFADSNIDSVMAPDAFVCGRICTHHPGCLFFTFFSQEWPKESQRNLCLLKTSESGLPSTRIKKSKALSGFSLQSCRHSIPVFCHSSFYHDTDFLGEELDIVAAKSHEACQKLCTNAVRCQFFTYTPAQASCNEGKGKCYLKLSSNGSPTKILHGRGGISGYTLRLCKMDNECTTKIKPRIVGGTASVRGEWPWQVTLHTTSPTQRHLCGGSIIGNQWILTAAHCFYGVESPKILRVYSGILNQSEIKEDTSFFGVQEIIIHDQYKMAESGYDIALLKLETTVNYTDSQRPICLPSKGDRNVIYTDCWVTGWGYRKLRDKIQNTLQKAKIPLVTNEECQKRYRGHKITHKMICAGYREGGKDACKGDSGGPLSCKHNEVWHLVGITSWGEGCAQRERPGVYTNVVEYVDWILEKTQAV
Chain of purified human Factor XIa (P03951 whole entry partner, looked up): as the sequence (P03951 whole entry, looked up) above

SMILES	Ki [1] [nM]	Ki [2] [nM]
C[C@@H]1CCC[C@H](N2CCC(c3c(F)ccc(Cl)c3F)=CC2=O)c2cc(ccn2)-c2ccc(NC3O[C@H](CO)[C@@H](O[C@H]4O[C@H](CO)[C@@H](O[C@H]5O[C@H](CO)[C@@H](O)[C@H](O)[C@H]5O)[C@H](O)[C@H]4O)[C@H](O)[C@H]3O)cc2NC1=O (stereo partly drawn) [Example 133, (10R,14S)-14-[4-(3-chloro-2,6-difluorophenyl)-6-oxo-1,2,3,6-tetrahydropyridin-1-yl]-5-{[(3R,4R,5S,6R)-5-{[(2R,3R,4R,5S,6R)-3,4-dihydroxy-6-(hydroxymethyl)-5-{[(2R,3R,4S,5S,6R)-3,4,5-trihydroxy-6-(hydroxymethyl)oxan-2-yl]oxy}oxan-2-yl]oxy}-3,4-dihydroxy-6-(hydroxymethyl)oxan-2-yl]amino}-10-methyl-8,16-diazatricyclo[13.3.1.0^2,7]nonadeca-1(19),2,4,6,15,17-hexaen-9-one]	4.77	12.6
COC(=O)Nc1ccc2c(c1)NC(=O)[C@H](C)CCC[C@H](N1CCC(c3c(F)ccc(Cl)c3F)=CC1=O)c1nc-2c(Cl)[nH]1 [Example 135, Methyl N-[(10R,14S)-17-chloro-14-[4-(3-chloro-2,6-difluorophenyl)-6-oxo-1,2,3,6-tetrahydropyridin-1-yl]-10-methyl-9-oxo-8,16,18-triazatricyclo[13.2.1.0^2,7]octadeca-1(17),2,4,6,15(18)-pentaen-5-yl]carbamate, TFA salt]	0.05	0.56
COC(=O)Nc1ccc2c(c1)NC(=O)[C@H](C)C(=O)CC[C@H](N1CCC(c3c(F)ccc(Cl)c3F)=CC1=O)c1cc-2ccn1 [Example 136, Methyl N-[(10R,14S)-14-[4-(3-chloro-2,6-difluorophenyl)-6-oxo-1,2,3,6-tetrahydropyridin-1-yl]-10-methyl-9,11-dioxo-8,16-diazatricyclo[13.3.1.0^2,7]nonadeca-1(19),2(7),3,5,15,17-hexaen-5-yl]carbamate]	45.3	118
C[C@@H]1CCC[C@H](N2CCC(c3c(F)ccc(Cl)c3F)=CC2=O)c2cc(ccn2)-c2cc(Br)ccc2NC1=O [Example 137, (10R,14S)-4-bromo-14-[4-(3-chloro-2,6-difluorophenyl)-6-oxo-1,2,3,6-tetrahydropyridin-1-yl]-10-methyl-8,16-diazatricyclo[13.3.1.0^2,7]nonadeca-1(19),2(7),3,5,15,17-hexaen-9-one]	69.6	91.3
C[C@@H]1CCC[C@H](N2CCC(c3c(F)ccc(Cl)c3F)=CC2=O)c2cc(ccn2)-c2cc(C#N)ccc2NC1=O [Example 138, (10R,14S)-14-[4-(3-chloro-2,6-difluorophenyl)-6-oxo-1,2,3,6-tetrahydropyridin-1-yl]-10-methyl-9-oxo-8,16-diazatricyclo[13.3.1.0^2,7]nonadeca-1(19),2(7),3,5,15,17-hexaene-4-carbonitrile]	36.2	31.7
C[C@@H]1CCC[C@H](N2CCC(c3c(F)ccc(C#N)c3F)=CC2=O)c2cc(ccn2)-c2cc(C#N)ccc2NC1=O [Example 139, (10R,14S)-14-[4-(3-cyano-2,6-difluorophenyl)-6-oxo-1,2,3,6-tetrahydropyridin-1-yl]-10-methyl-9-oxo-8,16-diazatricyclo[13.3.1.0^2,7]nonadeca-1(19),2(7),3,5,15,17-hexaene-4-carbonitrile]	> 408	6050
Cc1ccc2c(c1)-c1ccnc(c1)[C@@H](N1CCC(c3c(F)ccc(Cl)c3F)=CC1=O)CCC[C@@H](C)C(=O)N2 [Example 141, (10R,14S)-14-[4-(3-chloro-2,6-difluorophenyl)-6-oxo-1,2,3,6-tetrahydropyridin-1-yl]-4,10-dimethyl-8,16-diazatricyclo[13.3.1.0^2,7]nonadeca-1(19),2(7),3,5,15,17-hexaen-9-one]	98.9	123
C[C@@H]1CCC[C@H](N2CCC(c3c(F)ccc(Cl)c3F)=CC2=O)c2cc(ccn2)-c2cc(F)c(N)cc2NC1=O [Example 143, (10R,14S)-5-amino-14-[4-(3-chloro-2,6-difluorophenyl)-6-oxo-1,2,3,6-tetrahydropyridin-1-yl]-4-fluoro-10-methyl-8,16-diazatricyclo[13.3.1.0^2,7]nonadeca-1(19),2(7),3,5,15,17-hexaen-9-one]	1.31	3.38
COC(=O)c1ccc2c(c1)-c1ccnc(c1)[C@@H](N1CCC(c3c(F)ccc(Cl)c3F)=CC1=O)CCC[C@@H](C)C(=O)N2 [Example 144, Methyl (10R,14S)-14-[4-(3-chloro-2,6-difluorophenyl)-6-oxo-1,2,3,6-tetrahydropyridin-1-yl]-10-methyl-9-oxo-8,16-diazatricyclo[13.3.1.0^2,7]nonadeca-1(19),2(7),3,5,15,17-hexaene-4-carboxylate]	186	108
C[C@@H]1CCC[C@H](N2CCC(c3c(Br)ccc(Cl)c3F)=CC2=O)c2cc(ccn2)-c2cc(F)ccc2NC1=O [Example 147, (10R,14S)-14-[4-(6-bromo-3-chloro-2-fluorophenyl)-6-oxo-1,2,3,6-tetrahydropyridin-1-yl]-4-fluoro-10-methyl-8,16-diazatricyclo[13.3.1.0^2,7]nonadeca-1(19),2(7),3,5,15,17-hexaen-9-one]	3.59	7.51
C[C@@H]1CCC[C@H](N2CCC(c3c(F)ccc(Cl)c3F)=CC2=O)c2cc(ccn2)-c2cc(CO)ccc2NC1=O [Example 148, (10R,14S)-14-[4-(3-chloro-2,6-difluorophenyl)-6-oxo-1,2,3,6-tetrahydropyridin-1-yl]-4-(hydroxymethyl)-10-methyl-8,16-diazatricyclo[13.3.1.0^2,7]nonadeca-1(19),2(7),3,5,15,17-hexaen-9-one]	90.1	118
C[C@@H]1CCC[C@H](N2CCC(c3c(F)ccc(Cl)c3F)=CC2=O)c2cc(ccn2)-c2ccc(CO)cc2NC1=O [Example 149, (10R,14S)-14-[4-(3-chloro-2,6-difluorophenyl)-6-oxo-1,2,3,6-tetrahydropyridin-1-yl]-5-(hydroxymethyl)-10-methyl-8,16-diazatricyclo[13.3.1.0^2,7]nonadeca-1(19),2(7),3,5,15,17-hexaen-9-one]	17.5	22.6
C[C@@H]1CCC[C@H](N2CCC(c3c(C#N)ccc(Cl)c3F)=CC2=O)c2cc(ccn2)-c2cc(F)ccc2NC1=O [Example 150, 4-chloro-3-fluoro-2-{1-[(10R,14S)-4-fluoro-10-methyl-9-oxo-8,16-diazatricyclo[13.3.1.0^2,7]nonadeca-1(19),2(7),3,5,15,17-hexaen-14-yl]-6-oxo-1,2,3,6-tetrahydropyridin-4-yl}benzonitrile]	0.99	2.27
COC(=O)Nc1ccc2c(c1)C(=O)NCCCCC[C@H](N1CCC(c3c(F)ccc(Cl)c3F)=CC1=O)c1cc-2ccn1 [Example 152, Methyl N-[(15S)-15-[4-(3-chloro-2,6-difluorophenyl)-6-oxo-1,2,3,6-tetrahydropyridin-1-yl]-8-oxo-9,17-diazatricyclo[14.3.1.0^2,7]icosa-1(20),2(7),3,5,16,18-hexaen-5-yl]carbamate, TFA salt]	25.6	24.3
COC(=O)Nc1ccc2c(c1)NC(=O)[C@H](C)CCC[C@H](N1CCC(c3ccnc(N)c3)=CC1=O)c1cc-2ccn1 [Example 154, Methyl N-[(10R,14S)-14-[4-(2-aminopyridin-4-yl)-6-oxo-1,2,3,6-tetrahydropyridin-1-yl]-10-methyl-9-oxo-8,16-diazatricyclo[13.3.1.0^2,7]nonadeca-1(19),2,4,6,15,17-hexaen-5-yl]carbamate, 2 TFA salt]	23.6	118
COC(=O)Nc1ccc2c(c1)NC(=O)[C@H](C)CCC[C@H](N1CCC(C3CCNCC3)=CC1=O)c1cc-2ccn1 [Example 155, Methyl N-[(10R,14S)-10-methyl-9-oxo-14-[6-oxo-4-(piperidin-4-yl)-1,2,3,6-tetrahydropyridin-1-yl]-8,16-diazatricyclo[13.3.1.0^2,7]nonadeca-1(19),2,4,6,15,17-hexaen-5-yl]carbamate, 2 TFA salt]	4.88	199
COC(=O)Nc1ccc2c(c1)NC(=O)[C@H](C)CCC[C@H](N1CCC(c3cccc(Cl)n3)=CC1=O)c1cc-2ccn1 [Example 157, Methyl N-[(10R,14S)-14-[4-(6-chloropyridin-2-yl)-6-oxo-1,2,3,6-tetrahydropyridin-1-yl]-10-methyl-9-oxo-8,16-diazatricyclo[13.3.1.0^2,7]nonadeca-1(19),2,4,6,15,17-hexaen-5-yl]carbamate, 2 TFA salt]	74.9	108
COC(=O)Nc1ccc2c(c1)NC(=O)[C@H](C)CCC[C@H](N1CCC(C3CCCCN3C)=CC1=O)c1cc-2ccn1 (stereo partly drawn) [Example 158, Methyl N-[(10R,14S)-10-methyl-14-[4-(1-methylpiperidin-2-yl)-6-oxo-1,2,3,6-tetrahydropyridin-1-yl]-9-oxo-8,16-diazatricyclo[13.3.1.0^2,7]nonadeca-1(19),2,4,6,15,17-hexaen-5-yl]carbamate, 2 TFA salt]	> 404	10900
COC(=O)Nc1ccc2c(c1)NC(=O)[C@H](C)CCC[C@H](N1CCC(C3CCCC(C)C3)=CC1=O)c1cc-2ccn1 (stereo partly drawn) [Example 159, Methyl N-[(10R,14S)-10-methyl-14-[4-(3-methylcyclohexyl)-6-oxo-1,2,3,6-tetrahydropyridin-1-yl]-9-oxo-8,16-diazatricyclo[13.3.1.0^2,7]nonadeca-1(19),2,4,6,15,17-hexaen-5-yl]carbamate, TFA salt (diastereomeric isomers)]	63.2	58.9
COC(=O)Nc1ccc2c(c1)NC(=O)[C@H](C)CCC[C@H](N1CCC(c3c(Br)ccc(Cl)c3F)=CC1=O)c1cccc-2c1 [Example 161, Methyl N-[(10R,14S)-14-[4-(6-bromo-3-chloro-2-fluorophenyl)-6-oxo-1,2,3,6-tetrahydropyridin-1-yl]-10-methyl-9-oxo-8-azatricyclo[13.3.1.0^2,7]nonadeca-1(19),2,4,6,15,17-hexaen-5-yl]carbamate]	0.59	21.6

Source: patent US9409908B2 (priority 2012, dated 2016)
